The structures appear in SMILES notation.

The experiment addresses T1, human neurotrypsin (Homo sapiens, UniProt P56730).
T1 sequence (P56730 21-875): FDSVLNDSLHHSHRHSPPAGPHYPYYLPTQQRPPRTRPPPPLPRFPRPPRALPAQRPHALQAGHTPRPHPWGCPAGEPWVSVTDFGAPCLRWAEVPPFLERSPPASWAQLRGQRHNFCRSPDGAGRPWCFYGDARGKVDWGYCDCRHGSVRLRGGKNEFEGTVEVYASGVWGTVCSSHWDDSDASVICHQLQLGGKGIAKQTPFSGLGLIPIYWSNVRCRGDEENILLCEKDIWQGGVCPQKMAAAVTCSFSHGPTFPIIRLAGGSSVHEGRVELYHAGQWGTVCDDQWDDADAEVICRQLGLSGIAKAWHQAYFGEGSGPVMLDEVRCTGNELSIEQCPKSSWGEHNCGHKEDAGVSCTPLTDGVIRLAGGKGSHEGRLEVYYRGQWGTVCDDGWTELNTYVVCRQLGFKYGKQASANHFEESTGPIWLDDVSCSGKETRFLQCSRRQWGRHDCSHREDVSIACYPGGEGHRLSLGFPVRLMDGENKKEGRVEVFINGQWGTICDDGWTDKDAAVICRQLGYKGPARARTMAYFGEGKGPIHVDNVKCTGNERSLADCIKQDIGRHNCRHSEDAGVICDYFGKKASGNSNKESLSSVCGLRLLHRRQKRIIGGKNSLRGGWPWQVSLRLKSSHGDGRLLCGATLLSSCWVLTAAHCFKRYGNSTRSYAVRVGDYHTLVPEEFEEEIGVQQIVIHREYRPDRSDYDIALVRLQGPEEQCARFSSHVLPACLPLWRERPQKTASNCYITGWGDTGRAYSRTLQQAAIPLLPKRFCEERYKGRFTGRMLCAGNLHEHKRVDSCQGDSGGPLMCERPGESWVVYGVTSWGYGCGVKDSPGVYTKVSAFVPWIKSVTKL
The experiment is described as follows: Determination of IC50 for human neurotrypsin. The format is biochemical. Particulars: human neurotrypsin; method of WO 2006/1103261; read-out: Neurotrypsin IC50. As for the experimental part: Assessment of the potency of compounds of examples 1-311 in inhibiting the enzymatic activity of human neurotrypsin was performed according to the method described in patent application WO 2006/1103261
With `O=C(O)c1cc(C(=O)N2CCC(c3ccc(Cl)cc3)C2)ccc1NC(=O)c1sc2ccccc2c1Cl` (stereo not shown) [Example 108], the IC50 (as a rule, the concentration at which inhibition is half-maximal) came to 3.9 µM.
Take `CC(NC(=O)c1ccc(NC(=O)c2ccc(-c3ccc(Cl)cc3)s2)c(C(=O)O)c1)c1ccc(Cl)cc1` (stereo not shown) [Example 110]: the concentration for half-maximal inhibition (IC50) was 3.4 µM.
As to `O=C(NC1CCCc2ccccc21)c1ccc(NC(=O)c2ccc(-c3ccc(Cl)cc3)s2)c(C(=O)O)c1` (stereo not shown) [Example 112], the IC50 worked out at 5 µM.
As to `O=C(O)c1cc(C(=O)N2CCC(c3ccc(F)cc3)CC2)ccc1NC(=O)c1sc2ccccc2c1Cl` [Example 113], the 50% inhibitory concentration (IC50) was 2.7 µM.
The value for `O=C(O)c1cc(C(=O)N2CCC(Cc3ccc(F)cc3)CC2)ccc1NC(=O)c1sc2ccccc2c1Cl` [Example 114] was 3 µM; that for `O=C(O)c1cc(C(=O)N2CCC(c3ccc(Cl)cc3)CC2)ccc1NC(=O)c1sc2ccccc2c1Cl` [Example 115] was 3.1 µM.
Consider `COc1ccc(C2CCN(C(=O)c3ccc(NC(=O)c4sc5ccccc5c4Cl)c(C(=O)O)c3)CC2)cc1` [Example 116], for which the concentration for half-maximal inhibition (IC50) stood at 2.4 µM.
As for `COc1ccc(CC2CCN(C(=O)c3ccc(NC(=O)c4sc5ccccc5c4Cl)c(C(=O)O)c3)CC2)cc1` [Example 117], the half-inhibitory concentration (IC50) came out at 2.9 µM.
For `O=C(O)c1cc(C(=O)N2CCC(Cc3ccc(Cl)cc3)CC2)ccc1NC(=O)c1sc2ccccc2c1Cl` [Example 118, 2-(3-Chlorobenzo[b]-thiophene-2-carboxamido)-5-(4-(4-chlorobenzyl)piperidine-1-carbonyl)benzoic acid], the IC50 turned out to be 2.2 µM.
Turning to `O=C(Nc1ccc(Cl)cc1)c1ccc(NC(=O)c2ccc(-c3cccs3)cc2O)c(C(=O)O)c1` [Example 120, 5-(4-Chlorophenyl-carbamoyl)-2-(2-hydroxy-4-(thiophen-2-yl)benzamido)-benzoic acid], the half-inhibitory concentration (IC50) worked out at 4.1 µM.
Turning to `Cc1cccc(C)c1C1CCN(C(=O)c2ccc(NC(=O)c3sc4ccccc4c3Cl)c(C(=O)O)c2)CC1` [Example 121], the 50% inhibitory concentration (IC50) was found to be 4.9 µM.
Consider `O=C(O)c1cc(C(=O)N2CCC(c3ccc(O)cc3)CC2)ccc1NC(=O)c1sc2ccccc2c1Cl` [Example 122], for which the half-inhibitory concentration (IC50) came out at 9.4 µM.
As for `O=C(NCCc1ccccc1)c1ccc(NC(=O)c2ccc(-c3nc4cc(Cl)c(Cl)cc4[nH]3)cc2)c(C(=O)O)c1` [Example 123], the IC50 came out at 3.5 µM.
Regarding `O=C(Nc1ccc(C(=O)N2CCCCC2)cc1C(=O)O)c1ccc(-c2nc3cc(Cl)c(Cl)cc3[nH]2)cc1` [Example 124], the half-maximal inhibitory concentration (IC50) is 3.9 µM.
On to `O=C(Nc1ccc(C(=O)NC2CCCCC2)cc1C(=O)O)c1ccc(-c2nc3cc(Cl)c(Cl)cc3[nH]2)cc1` [Example 125], for which the IC50 is 3.5 µM.
With `O=C(NCC1CCCCC1)c1ccc(NC(=O)c2ccc(-c3nc4cc(Cl)c(Cl)cc4[nH]3)cc2)c(C(=O)O)c1` [Example 126], the 50% inhibitory concentration (IC50) was found to be 1.2 µM.
As for `CCCCc1ccc(NC(=O)c2ccc(NC(=O)c3ccc(-c4nc5cc(Cl)c(Cl)cc5[nH]4)cc3)c(C(=O)O)c2)cc1` [Example 129], the half-maximal inhibitory concentration (IC50) came to 1 µM.
In the case of `CC(C)CNC(=O)c1ccc(NC(=O)c2ccc(-c3nc4cc(Cl)c(Cl)cc4[nH]3)cc2)c(C(=O)O)c1` [Example 130] it was 7.6 µM; in that of `CC(C)CN(CC(C)C)C(=O)c1ccc(NC(=O)c2ccc(-c3nc4cc(Cl)c(Cl)cc4[nH]3)cc2)c(C(=O)O)c1` [Example 131], 0.7 µM; in that of `O=C(NCc1ccccc1)c1ccc(NC(=O)c2ccc(-c3nc4cc(Cl)c(Cl)cc4[nH]3)cc2)c(C(=O)O)c1` [Example 132], 5.3 µM.
Regarding `CC(NC(=O)c1ccc(NC(=O)c2ccc(-c3nc4cc(Cl)c(Cl)cc4[nH]3)cc2)c(C(=O)O)c1)c1ccc(Cl)cc1` (stereo not shown) [Example 133], the concentration for half-maximal inhibition (IC50) amounted to 1.9 µM.
Take `O=C(Nc1ccc(Cl)cc1)c1ccc(NC(=O)c2[nH]c3ccc(Cl)cc3c2-c2ccccc2)c(C(=O)O)c1` [Example 134]: the IC50 worked out at 1.9 µM.
For `Cn1c(-c2ccc(C(=O)Nc3ccc(C(=O)Nc4ccc(Cl)cc4)cc3C(=O)O)cc2)nc2cc(Cl)c(Cl)cc21` [Example 135], the IC50 worked out at 0.9 µM.
In the case of `CCCCCCCNC(=O)c1ccc(NC(=O)c2ccc(-c3nc4cc(Cl)c(Cl)cc4[nH]3)cc2)c(C(=O)O)c1` [Example 137] it was 2.4 µM; in that of `O=C(Nc1ccccc1)c1ccc(NC(=O)c2ccc(-c3nc4cc(Cl)c(Cl)cc4[nH]3)cc2)c(C(=O)O)c1` [Example 138], 6.6 µM.
For the compound `O=C(Nc1ccccc1F)c1ccc(NC(=O)c2[nH]c3ccc(Cl)cc3c2-c2ccccc2)c(C(=O)O)c1` [Example 139], the IC50 was found to be 7.5 µM.
Consider `O=C(Nc1ccc(Cl)cc1F)c1ccc(NC(=O)c2[nH]c3ccc(Cl)cc3c2-c2ccccc2)c(C(=O)O)c1` [Example 140], for which the IC50 was 0.9 µM.
Consider `O=C(Nc1ccc(C(=O)N2CCC(Cc3ccc(F)cc3)CC2)cc1C(=O)O)c1ccc(-c2nc3cc(Cl)c(Cl)cc3[nH]2)cc1` [Example 141, 2-(4-(5,6-Dichloro-1H-benzo[d]imidazol-2-yl)benzamido)-5-(4-(4-fluorobenzyl)piperidine-1-carbonyl)benzoic acid], for which the half-inhibitory concentration (IC50) was found to be 1.9 µM.
As for `COc1ccc2c(Cl)c(C(=O)Nc3cc(C(=O)Nc4ccc(Cl)cc4)ccc3C(=O)O)sc2c1` [Example 142, 2-(3-Chloro-6-methoxy-benzo[b]thiophene-2-carbox)-4-(4-chlorophenylcarbamoyl)-benzoic acid], the concentration for half-maximal inhibition (IC50) was determined as 2.2 µM.
As to `O=C(Nc1ccc(Cl)cc1)c1ccc(C(=O)O)c(NC(=O)c2cc(Br)cc(Br)c2O)c1` [Example 143, 4-(4-Chlorophenyl-carbamoyl)-2-(3,5-dibromo-2-hydroxybenzamido)benzoic acid], the IC50 was found to be 3.9 µM.
For `O=C(Nc1ccc(Cl)cc1)c1ccc(C(=O)O)c(NC(=O)c2ccc(-c3ccccn3)s2)c1` [Example 144, 4-(4-Chlorophenyl-carbamoyl)-2-(5-(pyrid-2-yl)-thiophene-2-carboxamido)-benzoic acid], the IC50 turned out to be 22.1 µM.
The value for `O=C(NCc1ccc(Cl)cc1)c1ccc(C(=O)O)c(NC(=O)c2sc3ccccc3c2Cl)c1` [Example 148, 2-(3-Chloro-benzo[b]-thiophene-2-carboxamido)-4-(4-chlorobenzylcarbamoyl)-benzoic acid] was 4.3 µM; that for `O=C(Nc1ccccn1)c1ccc(C(=O)O)c(NC(=O)c2sc3ccccc3c2Cl)c1` [Example 149, 2-(3-Chloro-benzo[b]-thiophene-2-carboxamido)-4-(pyridin-2-ylcarbamoyl)-benzoic acid] was 16.5 µM.
For the compound `O=C(O)c1ccc(C(=O)N2CCC(O)(c3ccc(Cl)c(C(F)(F)F)c3)CC2)cc1NC(=O)c1sc2ccccc2c1Cl` [Example 151, 4-(4-(4-Chloro-3-(trifluoro-methyl)phenyl)-4-hydroxy-piperidine-1-carbonyl)-2-(3-chlorobenzo[b]thiophene-2-carboxamido)benzoic acid], the IC50 turned out to be 2.7 µM.
Turning to `CCOC(=O)CN(C(=O)c1ccc(C(=O)O)c(NC(=O)c2sc3ccccc3c2Cl)c1)c1ccc(Cl)cc1` [Example 156, 2-(3-Chlorobenzo[b]-thiophene-2-carboxamido)-4-(N-(4-chlorophenyl)-N-(ethoxycarbonylmethyl)-carbamoyl)benzoic acid], the half-inhibitory concentration (IC50) was found to be 4.7 µM.
Consider `O=C(O)c1cc(C(=O)N2CCC(Cc3ccccc3)CC2)ccc1NC(=O)c1sc2ccccc2c1Cl` [Example 157, 5-(4-Benzylpiperidine-1-carbonyl)-2-(3-chlorobenzo[b]thiophene-2-carboxamido)benzoic acid], for which the 50% inhibitory concentration (IC50) came to 3.8 µM.
Consider `O=C(Nc1ccc(C(=O)N2CCC(Cc3ccccc3)CC2)cc1C(=O)O)c1cc2ccc(Cl)cc2s1` [Example 158, 5-(4-Benzylpiperidine-1-carbonyl)-2-(6-chloro-benzo[b]thiophene-2-carboxamido)benzoic acid], for which the IC50 came to 3.8 µM.
Take `O=C(NC1Cc2ccccc2C1)c1ccc(NC(=O)c2sc3ccccc3c2Cl)c(C(=O)O)c1` [Example 159, 2-(3-Chlorobenzo[b]-thiophene-2-carboxamido)-5-(indan-2-ylcarbamoyl)benzoic acid]: the IC50 was 6.5 µM.
In the case of `O=C(Nc1ccc(C(=O)N2CCC(Oc3ccccc3)CC2)cc1C(=O)O)c1cc2ccc(Cl)cc2s1` [Example 160, 2-(6-Chlorobenzo[b]thiophene-2-carboxamido)-5-(4-phenoxypiperidine-1-carbonyl)benzoic acid] it was 3.9 µM; in that of `O=C(Nc1ccc(C(=O)N2CCC(Cc3ccccc3)CC2)cc1C(=O)O)c1ccc(-c2ccc(Cl)cc2)s1` [Example 161, 5-(4-Benzylpiperidine-1-carbonyl)-2-(5-(4-chloro-phenyl)thiophene-2-carboxamido)benzoic acid], 3 µM.
